Our source for the IC50 values is ChEMBL document CHEMBL1157260, “Cytotoxic diterpenes from Cassipourea madagascariensis from the Madagascar rainforest” (J Nat Prod, 2006).

Values after ≈ are worked out from the molar mass of the structure shown.

This experiment deals with A2780. As to the kind of experiment: Cytotoxicity against human A2780 cells by clonogenic assay. Format: functional, cell-based.
`C=C(CO)[C@@H]1CC[C@]2(C)CC[C@]3(C)[C@H](CC[C@@H]4[C@@]5(C)CCC(=O)C(C)(C)[C@@H]5CC[C@]43C)[C@@H]12` came in with an IC50 of 16.4 µg/mL (≈ 37.2 µM).

On to `C=C(CO)[C@@H]1CC[C@]2(C)CC[C@]3(C)[C@H](CC[C@@H]4[C@@]5(C)CC[C@H](O)C(C)(C)[C@@H]5CC[C@]43C)[C@@H]12`, for which the IC50 is 12.2 µg/mL (≈ 27.6 µM).

Turning to `C/C(=C\CO)CCCC(C)CC[C@H]1[C@@H](C)CCCC1(C)C` (stereo not given in full) [CASSIPOUROL], half-maximal inhibition (IC50) required 2.4 µg/mL (≈ 8.15 µM).

`CC(=O)OC/C=C(\C)CCCC(C)CC[C@H]1[C@@H](C)CCCC1(C)C` (stereo not given in full) [CASSIPOURYL ACETATE] showed a half-inhibitory concentration (IC50) of 2.8 µg/mL.

`COc1cc(O)c2c(=O)c(OC)c(-c3cc(OC)c(OC)c(OC)c3)oc2c1` [COMBRETOL] displayed an IC50 of 8.7 µg/mL (≈ 22.4 µM).
